Activity calls are given as the source filed them.

This is an account of results in ChEMBL document CHEMBL1201862, “PubChem BioAssay data set” (2004).

The nature of assay [1]: blockers of HIV-1 envelope-mediated cell-cell fusion – cherry-pick, dose response (AID 652057). In kind it is functional, cell-based.
The nature of assay [2]: viability loss in CEM21 cells – cell-based, CellTiter-Glo luminescence, cherry-picked, cytotoxicity control for viral fusion inhibitor project, dose response (AID 652042).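 Further: potency for signal decrease meaning cytotoxicity.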 The class given is functional. (In general: ATP-based viability assays read luminescence as a measure of living cells.)
A short description of assay [3]: HIV-1 AD8 envelope cell-cell fusion blockers – cherry-pick, dose response (AID 652062).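 Further: luciferase signal from cell-cell fusion driven by HIV-1 clade B AD8 Env; potency is for inhibitors of fusion seen as a drop in luminescence.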 In kind it is functional, cell-based.
Assay [4] can be described thus: Trypanosoma cruzi growth suppression in host cells – NIH3T3 host cells, beta-gal luminescence, confirmation (AID 2044).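 Further: intracellular parasites grown in NIH/3T3 mouse fibroblasts as host cells; luminescent beta-galactosidase reporter signal from transgenic T. cruzi replicating inside host cells; inhibitors lower the luminescence signal.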 The class given is functional, cell-based.
A short description of assay [5]: NIH3T3 cell viability loss – ATP luminescence, mouse fibroblasts, counter-screen, dose response (AID 2010).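 Further: cells exposed to compound for about 90 hours before reading.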 In kind it is functional, cell-based. On the technique in general: Counterscreens check selectivity or assay interference.
For assay [6], the target named is Heat shock protein HSP 90-alpha (Homo sapiens, UniProt P07900). In kind it is functional, organism-based.
Assay [7] deals with INS1. As to the kind of experiment: INS-1E survival protection against cytokine death – cell-based, luminescence, retest, dose response (AID 449756).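 Further: cell death triggered by IL-1 beta plus TNF-alpha plus IFN-gamma mixture; protective hits raise ATP signal compared with cytokine alone wells.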 As to conditions: Rattus norvegicus. In kind it is functional.
For assay [8], the target named is T1, Sentrin-specific protease 8 (Homo sapiens, UniProt Q96LD8).
T1 sequence (Q96LD8 whole entry): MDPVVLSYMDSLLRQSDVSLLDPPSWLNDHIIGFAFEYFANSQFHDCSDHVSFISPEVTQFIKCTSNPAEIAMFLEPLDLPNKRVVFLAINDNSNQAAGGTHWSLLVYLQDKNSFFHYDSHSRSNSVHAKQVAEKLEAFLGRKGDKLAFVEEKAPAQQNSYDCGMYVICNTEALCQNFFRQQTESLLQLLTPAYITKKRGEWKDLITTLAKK
In kind it is functional.

In assay [9] the target is T1, Sentrin-specific protease 8. In kind it is functional. The source holds these as a separate data set.
Assay [10] is described as follows: viability of uninfected HEp-2 cells – cell-based, HTS, cytotoxicity control for RSV inhibitor project, dose response (AID 2410). The class given is functional. As to conditions: human respiratory syncytial virus.
Assay [11] can be described thus: off-target signal loss in HeLa-CEM21 co-culture – HeLa F-luc CTL cells, cherry-picked, counter-screen for HIV-1 Env fusion inhibitor project, dose response (AID 652040).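 Further: potency for signal decrease marking cytotoxic or nonspecific inhibition.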 In kind it is functional, cell-based.
Assay [12] addresses T2, Calpain-2 catalytic subunit (Sus scrofa, UniProt P43367).
T2 sequence (P43367 whole entry): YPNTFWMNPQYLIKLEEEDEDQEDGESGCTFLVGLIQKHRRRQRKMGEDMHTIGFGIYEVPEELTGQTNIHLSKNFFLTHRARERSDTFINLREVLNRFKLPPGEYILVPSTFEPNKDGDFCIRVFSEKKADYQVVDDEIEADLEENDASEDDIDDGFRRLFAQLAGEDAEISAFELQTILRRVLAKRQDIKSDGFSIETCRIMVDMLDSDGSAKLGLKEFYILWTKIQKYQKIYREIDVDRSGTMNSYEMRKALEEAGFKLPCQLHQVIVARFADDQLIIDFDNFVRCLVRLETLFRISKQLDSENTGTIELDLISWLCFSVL
The experiment in a line: m-calpain protease blockers, concentration series – biochemical, fluorogenic peptide substrate, dose response (AID 1420). In kind it is functional.

Assay [13] has as its target T3, Galanin receptor type 3 (Homo sapiens, UniProt O60755).
T3 sequence (O60755 whole entry): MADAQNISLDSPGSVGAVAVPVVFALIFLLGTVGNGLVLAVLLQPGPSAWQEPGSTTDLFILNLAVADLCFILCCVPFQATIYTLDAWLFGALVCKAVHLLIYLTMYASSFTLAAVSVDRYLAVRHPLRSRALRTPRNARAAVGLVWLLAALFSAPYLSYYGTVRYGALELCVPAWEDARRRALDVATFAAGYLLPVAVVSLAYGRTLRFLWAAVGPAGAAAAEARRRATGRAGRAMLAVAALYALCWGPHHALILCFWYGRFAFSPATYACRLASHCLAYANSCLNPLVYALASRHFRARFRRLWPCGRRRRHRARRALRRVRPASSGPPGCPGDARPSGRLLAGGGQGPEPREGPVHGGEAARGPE
The experiment in a line: Fluorescence-based cell-based primary high throughput dose response assay to identify antagonists of the Galanin Receptor 3 (GalR3). The class given is functional.

A short description of assay [14]: cells. The class given is functional, cell-based. As to conditions: HEK-CNG.
The target of assay [15] is Luciferin 4-monooxygenase (Photinus pyralis, UniProt P08659). The experiment in a line: inhibition of purified Photinus pyralis luciferase – biochemical, luminescence, dose response (AID 1891).
Luciferin 4-monooxygenase, sequence (P08659 whole entry): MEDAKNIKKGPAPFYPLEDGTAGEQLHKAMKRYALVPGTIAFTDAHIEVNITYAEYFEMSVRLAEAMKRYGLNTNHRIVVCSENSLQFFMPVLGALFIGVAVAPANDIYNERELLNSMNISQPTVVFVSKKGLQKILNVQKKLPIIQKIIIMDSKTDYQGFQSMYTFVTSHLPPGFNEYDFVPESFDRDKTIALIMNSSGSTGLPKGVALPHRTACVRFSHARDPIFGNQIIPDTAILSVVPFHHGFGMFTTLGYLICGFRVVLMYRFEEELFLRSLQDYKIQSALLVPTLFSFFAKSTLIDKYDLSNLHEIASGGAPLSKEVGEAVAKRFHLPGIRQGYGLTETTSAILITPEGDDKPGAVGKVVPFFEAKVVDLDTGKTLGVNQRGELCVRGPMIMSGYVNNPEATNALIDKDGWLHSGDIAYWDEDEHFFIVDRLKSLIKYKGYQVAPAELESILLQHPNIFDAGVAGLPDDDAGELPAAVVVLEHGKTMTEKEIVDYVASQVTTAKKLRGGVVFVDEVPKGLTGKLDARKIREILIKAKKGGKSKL
Assay [16] in a line: Luminescence Cell-Based Dose Confirmation HTS to Identify Inhibitors of Platelet Dense Granule Release. [Related pubchem assays: 1663 (Primary HTS), 1678 (Summary of Project)]. In kind it is functional.
The subject of assay [17] is Streptococcus sp. 'group A'. The experiment in a line: Streptococcus pyogenes SK(-)GAS viability under kanamycin – luminescence, BacTiterGlo, confirmation, counter-screen for streptokinase expression inhibitor project, dose response (AID 1900). In kind it is functional, organism-based.
For assay [18], the system named is Streptococcus. The experiment in a line: GAS UMAA2166 growth inhibition – luminescence, BacTiterGlo, counter-screen for streptokinase expression inhibitor project, dose response (AID 1915).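 Further: potency for reduction of bacterial viability or growth.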 The class given is functional, organism-based.
A short description of assay [19]: blockers of HIV-1 ZM109 envelope-driven cell-cell fusion – HeLa effector, CEM target cells, luciferase, cherry-pick, dose response (AID 652058).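 Further: luciferase signal from HIV-1 Env mediated cell-cell fusion of effector and target cells.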 In kind it is functional, cell-based.

The term AC50 denotes the concentration at which the activity in the assay is half-maximal. In the case of `CN(C)c1ccc2c(c1)[C@@H]1C[C@H](CC(=O)NCc3ccc(-c4ccccc4)cc3)O[C@@H](CO)[C@@H]1O2`, the AC50 in assay [1] was < 0.26 µM (active); in assay [2], 40.9 µM (active); in assay [3], 2.51 µM (active).
The term EC50 denotes the concentration giving half of the maximal effect. By IC50 is commonly meant the midpoint of a concentration-inhibition curve. With `Cc1ccc(NC(=S)N/N=C/c2ccc([N+](=O)[O-])s2)cc1`, the figures for the concentration for a half-maximal effect (EC50) in assay [4] and in assay [5] were 1.34 µM (active) and 7.86 µM (active), respectively. Moreover, the half-maximal activity concentration (AC50) was 3.4 µM (active) in assay [6] and 6.72 µM (active) in [7]. For the same compound, the concentration for half-maximal inhibition (IC50) in assay [8] was 18.4 µM (active); in assay [9] it was 21.5 µM (active).
Consider `O=C(c1ncn(Cc2ccccc2)c1C(=O)N1CCc2ccccc2C1)N1CCc2ccccc2C1`, for which the IC50 in assay [8] was > 100 µM (inactive); in assay [9] it was 16 µM (active).
Usually CC50 stands for the concentration at which the toxic effect on the cells reaches its halfway point. As for `Cc1n[nH]c2c1C1(C(=O)N(Cc3ccc(Cl)cc3)c3ccccc31)C(C#N)=C(N)O2` (configuration not stated), the cytotoxic concentration (CC50) in assay [10] is 25.1 µM (active). For the same compound, the half-maximal activity concentration (AC50) is 3.62 µM (active) in assay [1], 59.1 µM (active) in assay [2], 55.2 µM (active) in assay [11] and 39.6 µM (active) in assay [3].
Turning to `Cn1c(N)c(C(=O)COC(=O)c2cnc(Cl)c(Cl)c2)c(=O)n(C)c1=O`, the IC50 in assay [12] was 10.1 µM (active); in [13] it was > 29.9 µM (inactive). In assay [14], the EC50 was > 29.9 µM (inactive).
`CC1CC(=O)NN=C1c1ccc(NCCO)c([N+](=O)[O-])c1` (configuration not stated): the half-maximal effective concentration (EC50) in assay [15] is > 112 µM (not active); in assay [16], < 0.088 µM (active); in [14] it was > 29.9 µM (inactive). The IC50 in assay [13] was 0.367 µM (active).
As to `CC(C)(C)C(=O)NC(=S)NNC(=O)c1ccc(Cl)cc1Cl`, the EC50 was 1.88 µM (active) in assay [17], 5.5 µM (active) in [18] and > 29.9 µM (inactive) in assay [14]. In addition, in assay [13], the IC50 is > 29.9 µM (inactive).
On to `CCCCCCCCN1C(=O)[C@H](CC(=O)N2CCCCC2)C[C@@]2(C(=O)OCC)CCCC=C12`, for which the AC50 in assay [1] was 8.73 µM (active); in assay [2], 37.2 µM (active); in [19], 13.9 µM (active); in assay [11], > 70 µM (inactive); in assay [3], 0.465 µM (active).
